Data taken from US9675590B2, “Methods and pharmaceutical compositions for the treatment of myelodysplastic syndromes” (INSERM (INSTITUT NATIONAL DE LA SANTÉ ET DE LA RECHERCHE …, priority 2014, dated 2017).
Where two headings read alike, the source gives them in different places.

Columns and labels:
[1] = system: CD36+ erythroid progenitors from cord blood; experiment: Toxicity of KPT on CD36+ erythroid progenitors with normal EPO; format: cell-based, human; details: cord blood CD36+ at day 6 (D6) of culture; 33 nM, 100 nM, 333 nM and 1000 nM; normal concentrations of EPO; until 20 h of treatment
Description: (§1) Umbilical cord blood units from normal full-term deliveries were obtained, after informed mother's consent, from the Obstetrics Unit of Hôpital Necker-Enfants Malades. CD36+ erythroid progenitors, generated from 7 days IL-6+IL3+SCF-cultured CD34 progenitors isolated from cord blood (Miltenyi CD34 Progenitor Cell Isolation Kit), were cultured in the presence of IL3+SCF+Epo in IMDM (Gibco cell culture) supplemented with 15% BIT 9500 (Stem Cell Technologies).

CD36+ D6 = experiment: Cell death of CD36+ D6 cells during EPO starvation; format: cell-based, human; details: EPO starvation during 20 h
Description: as §1

HSP70 [2] = experiment: HSP70 nuclear retention in CD36+ D6 cells under EPO starvation; format: cell-based, human; details: CD36+ D6 from cord blood, after 20 h of treatment
Description: as §1
(§2) 5.10^4 cells were spin on slides, acetone fixated, hydrated with cold 1×PBS 1% BSA for 30 minutes, treated with formaldehyde for 15 min (Sigma), then with methanol (Prolabo) for 10 minutes at room temperature. Cells were then permeabilized with 1×PBS 0.2% triton X100 (Sigma) for 10 min at 4° C., washed and incubated in 10% BSA for 30 minutes. They were then sequentially incubated with antibodies diluted in 1×PBS 1% BSA 0.1% tween (Sigma). Nuclei were stained with DAPI and slides were examined with a confocal laser microscope (LSM 700 Carl Zeiss).

HSP70 [3] = experiment: HSP70 nuclear localization in myelodysplastic syndrome CD36+ D8 cells; format: cell-based, human; details: 100 nM, after 72 h of treatment, compared to non treated cells
Description: as §2

CD36+ D8 cells = experiment: Erythroid maturation of CD36+ D8 cells (MGG observations); format: cell-based, human; details: 100 nM, 333 nM and 1000 nM, after 72 h of treatment, compared to non treated cells
HSP70 [4] = details: erythroid precursor cells; cited from earlier work

Compound | toxicity for CD36+ erythroid progenitors [1] | decrease of cell death compared to the absence of KPT treatment (CD36+ D6; 100 nM) [%] | decrease of cell death compared to the absence of KPT treatment (CD36+ D6; 333 nM) [%] | HSP70 nuclear retention (HSP70 [2]) | HSP70 nuclear localization (HSP70 [3]) | maturation index (mature*100/polychromatic) (CD36+ D8 cells) | number of mature cells (CD36+ D8 cells) | HSP70 nuclear retention (HSP70 [4])
FC(F)(F)c1cc(-c2ncn(/C=C\c3nnco3)n2)cc(C(F)(F)F)c1 [KPT] | not toxic | 49 | 39 | induces HSP70 nuclear retention | induces HSP70 nuclear localization | increases | increases the number of mature cells | –
CCC(=C/[C@H](C)C/C=C/C(C)=C/[C@@H](C)C(=O)[C@@H](C)[C@H](O)[C@@H](C)C/C(C)=C/C(=O)O)/C=C/[C@@H]1OC(=O)C=C[C@@H]1C [Leptomycin B] | – | – | – | – | – | – | – | induces HSP70 nuclear retention
